# Values quoted from earlier work in patent EP4729553A1, “BLOCK POLYMER, AND COLORING MATERIAL DISPERSION AND INK COMPOSITION USING SAME” (Mikuni Shikiso Kabushiki Kaisha, priority 2023, dated 2024).
# Settings: monomer, trade product data
substance,measurement,value
ethoxylated o-phenylphenol acrylate [A-LEN10],LogP,3.98
